pIC50: −log10 of the molar value.
assay: Inhibition of C-KIT V654A/560-576 deletion mutant in human GIST-430/654 cells assessed as reduction in c-Kit autophosphorylation at […] residue incubated for 45 mins by Luminex bead based assay; assay type: cell-based; details: GIST-430/654, 0.75 h

| Structure (SMILES) | pIC50 |
| --- | --- |
| Cn1ncc(-c2ccc(CNc3cc(-c4cnc5cc(OCCCN6CCCC6)ccn45)ncn3)cc2)n1 | 7.35 |
| COCCN1CCC(COc2ccn3c(-c4cc(NCc5ccc(-c6cnn(C)n6)cc5)ncn4)cnc3c2)CC1 | 7.41 |
| Cn1ncc(-c2ccc(CNc3cc(-c4cnc5cc(OCCN6CC7(COC7)C6)ccn45)ncn3)cc2)n1 | 7.40 |
| CN1CC(COc2ccn3c(-c4cc(NCc5ccc(-c6cnn(C)c6)cc5)ncn4)cnc3c2)C1 | 7.21 |
| Cn1cc(-c2ccc(CNc3cc(-c4cnc5cc(OCCN6CCC[C@@H]7OCC[C@@H]76)ccn45)ncn3)cc2)cn1 | 7.00 |
| Cn1cc(-c2ccc(CNc3cc(-c4cnc5cc(CCN6CCN(C7COC7)CC6)ccn45)ncn3)cc2)cn1 | 6.48 |

More lines, now with the values ahead:

| pIC50 | Structure (SMILES) |
| --- | --- |
| 7.26 | COc1ccn2c(-c3cc(NCc4ccc(-c5cnn(C)c5)cc4)ncn3)cnc2c1 |
| 6.85 | CNC1CN(c2ccn3c(-c4cc(NCc5ccc(-c6cnn(C)c6)cc5)ncn4)cnc3c2)C1 |
| 7.11 | COc1ccn2c(-c3cc(NCc4ccc(-c5cnn(C)n5)cc4)ncn3)cnc2c1 |
| 7.13 | Cc1nc(-c2ccc(CNc3cc(-c4cnc5cc(OCCO)ccn45)ncn3)cc2)co1 |
| 6.57 | Cn1cc(-c2ccc(CNc3cc(-c4cnc5cc(OC6CCOC6)ccn45)ncn3)cc2)cn1 (configuration not stated) |
| 6.72 | c1ccn2c(-c3cc(NCc4ccc(-n5cccn5)cc4)ncn3)cnc2c1 |

Source: ChEMBL document CHEMBL4823309, “The Potential of c-KIT Kinase inhibitors in Cancer Treatment” (ACS Med Chem Lett, 2021)
